Experimental data reported in PubChem BioAssay (NCI).
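Protocol summary: plate cells (96-well), add compound at 5 concentrations, incubate 48 h, interpolate endpoints linearly. GI50 marks 50% less growth. Definition used: TGI = concentration required for complete inhibition of growth.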

Assays:
Test in all cases: inhibition of tumour cell growth, NCI panel, 48 h
[1] = tested on: HOP-92 NSCLC
[2] = tested on: SF-268 CNS
[3] = tested on: SR leukemia
[4] = tested on: HCT-116 colon
[5] = tested on: OVCAR-3 ovarian
[6] = tested on: A549 NSCLC
[7] = tested on: NCI-H460 lung
[8] = tested on: NCI/ADR-RES ovarian
[9] = tested on: NCI-H226 lung
[10] = tested on: SNB-75 CNS
[11] = tested on: MALME-3M melanoma
[12] = tested on: M14 melanoma
[13] = tested on: CCRF-CEM leukemia
[14] = tested on: BT-549 breast
[15] = tested on: MDA-MB-435
[16] = tested on: SK-OV-3 ovarian
[17] = tested on: SN12C renal
[18] = tested on: PC-3 prostate
[19] = tested on: HOP-62 NSCLC
[20] = tested on: ACHN renal
[21] = tested on: HT29 colon
[22] = tested on: T-47D breast
[23] = tested on: IGROV1 ovarian
[24] = tested on: OVCAR-4 ovarian
[25] = tested on: SW-620 colon
[26] = tested on: K-562 leukemia
[27] = tested on: U251 CNS
[28] = tested on: MCF7 breast
[29] = tested on: SNB-19 CNS
[30] = tested on: SK-MEL-2 melanoma
[31] = tested on: UACC-257 melanoma
[32] = tested on: LOX IMVI melanoma
[33] = tested on: RXF 393 renal
[34] = tested on: UO-31 renal
[35] = tested on: HL-60(TB) leukemia
[36] = tested on: HS 578T breast
[37] = tested on: DU-145 prostate
[38] = tested on: UACC-62 melanoma
[39] = tested on: SF-539 CNS
[40] = tested on: HCC-2998 colon
[41] = tested on: SK-MEL-28 melanoma
[42] = tested on: MOLT-4 leukemia
[43] = tested on: SK-MEL-5 melanoma
[44] = tested on: NCI-H23 lung
[45] = tested on: 786-0 renal
[46] = tested on: KM12 colon
[47] = tested on: MDA-MB-231 breast
[48] = tested on: OVCAR-5 ovarian
[49] = tested on: COLO 205 colon
[50] = tested on: RPMI-8226 leukemia
[51] = tested on: TK-10 renal
[52] = tested on: A498 renal
[53] = tested on: HCT-15 colon
[54] = tested on: OVCAR-8 ovarian
[55] = tested on: NCI-H522 lung
[56] = tested on: CAKI-1 renal
[57] = tested on: SF-295 CNS

SMILES: CCOC(=O)C(CC(C)C)NC(=O)CSc1nnc(COc2ccc(Cl)cc2)n1-c1ccccc1 (stereo not given)
- TGI [1]: 39.8 µM
- TGI [2]: 35.6 µM
- TGI [3]: 15.6 µM
- TGI [4]: 28 µM
- TGI [5]: 24.7 µM
- TGI [6]: 45.9 µM
- TGI [7]: 29.3 µM
- TGI [8]: 44.3 µM
- TGI [9]: 48.5 µM
- TGI [10]: 32 µM
- TGI [11]: 37.8 µM
- TGI [12]: 31.9 µM
- TGI [13]: 23.8 µM
- TGI [14]: 32.1 µM
- TGI [15]: 35.6 µM
- TGI [16]: 59.8 µM
- TGI [17]: 28.9 µM
- TGI [18]: 30.8 µM
- TGI [19]: 36.8 µM
- TGI [20]: 26 µM
- TGI [21]: 32.7 µM
- TGI [22]: 45.3 µM
- TGI [23]: 29.2 µM
- TGI [24]: 36.2 µM
- TGI [25]: 49.7 µM
- TGI [26]: > 100 µM
- TGI [27]: 33.4 µM
- TGI [28]: 35 µM
- TGI [29]: 31.6 µM
- TGI [30]: 30 µM
- TGI [31]: 23.2 µM
- TGI [32]: 28.9 µM
- TGI [33]: 34.3 µM
- TGI [34]: 3.68 µM
- TGI [35]: 43.4 µM
- TGI [36]: 60.9 µM
- TGI [37]: 32.4 µM
- TGI [38]: 30.7 µM
- TGI [39]: 42.3 µM
- TGI [40]: 27.4 µM
- TGI [41]: 33.1 µM
- TGI [42]: > 100 µM
- TGI [43]: 32.6 µM
- TGI [44]: 29.5 µM
- TGI [45]: 28.6 µM
- TGI [46]: 39.7 µM
- TGI [47]: 30.6 µM
- TGI [48]: 39.4 µM
- TGI [49]: 36.2 µM
- TGI [50]: 54.5 µM
- TGI [51]: 33.1 µM
- TGI [52]: 28.2 µM
- TGI [53]: 37.1 µM

SMILES: CC(=O)N1N=C(c2ccc(Nc3ccnc4cc(Cl)ccc34)cc2)CC1c1ccc(Cl)cc1 (stereo not given)
- GI50 [1]: > 100 µM
- TGI [1]: > 100 µM
- GI50 [2]: 9.1 µM
- TGI [2]: > 100 µM
- GI50 [3]: 612 nM
- TGI [3]: > 100 µM
- GI50 [4]: 38.8 µM
- TGI [4]: > 100 µM
- GI50 [5]: 7.19 µM
- TGI [5]: > 100 µM
- GI50 [6]: 8.81 µM
- TGI [6]: > 100 µM
- GI50 [7]: > 100 µM
- TGI [7]: > 100 µM
- GI50 [8]: 3.04 µM
- TGI [8]: > 100 µM
- GI50 [9]: > 100 µM
- TGI [9]: > 100 µM
- GI50 [12]: 5.24 µM
- TGI [12]: > 100 µM
- GI50 [14]: 5.4 µM
- TGI [14]: > 100 µM
- GI50 [15]: 566 nM
- TGI [15]: > 100 µM
- GI50 [17]: 30.7 µM
- TGI [17]: > 100 µM
- GI50 [18]: 3.02 µM
- TGI [18]: > 100 µM
- GI50 [19]: > 100 µM
- TGI [19]: > 100 µM
- GI50 [20]: 3.96 µM
- TGI [20]: > 100 µM
- GI50 [21]: 5.4 µM
- TGI [21]: > 100 µM
- GI50 [22]: 1570 nM
- TGI [22]: > 100 µM
- GI50 [23]: > 100 µM
- TGI [23]: > 100 µM
- GI50 [24]: 6.92 µM
- TGI [24]: > 100 µM
- GI50 [25]: > 100 µM
- TGI [25]: > 100 µM
- GI50 [27]: > 100 µM
- TGI [27]: > 100 µM
- GI50 [28]: 4.04 µM
- TGI [28]: > 100 µM
- GI50 [29]: > 100 µM
- TGI [29]: > 100 µM
- GI50 [30]: > 100 µM
- TGI [30]: > 100 µM
- GI50 [31]: > 100 µM
- TGI [31]: > 100 µM
- GI50 [32]: 3.15 µM
- TGI [32]: > 100 µM
- GI50 [33]: 5.07 µM
- TGI [33]: > 100 µM
- GI50 [34]: 3.87 µM
- TGI [34]: > 100 µM
- GI50 [35]: 3.56 µM
- TGI [35]: > 100 µM
- GI50 [54]: > 100 µM
- TGI [54]: > 100 µM
- GI50 [36]: > 100 µM
- TGI [36]: > 100 µM
- GI50 [37]: > 100 µM
- TGI [37]: > 100 µM
- GI50 [55]: 5.05 µM
- TGI [55]: > 100 µM
- GI50 [38]: 2950 nM
- TGI [38]: > 100 µM
- GI50 [39]: > 100 µM
- TGI [39]: > 100 µM
- GI50 [40]: > 100 µM
- TGI [40]: > 100 µM
- GI50 [41]: 4.88 µM
- TGI [41]: > 100 µM
- GI50 [42]: 2420 nM
- TGI [42]: > 100 µM
- GI50 [56]: > 100 µM
- TGI [56]: > 100 µM
- GI50 [43]: 2200 nM
- TGI [43]: 16 µM
- GI50 [44]: > 100 µM
- TGI [44]: > 100 µM
- GI50 [45]: > 100 µM
- TGI [45]: > 100 µM
- GI50 [46]: 6.59 µM
- TGI [46]: > 100 µM
- GI50 [47]: > 100 µM
- TGI [47]: > 100 µM
- GI50 [48]: > 100 µM
- TGI [48]: > 100 µM
- GI50 [49]: 5.93 µM
- TGI [49]: > 100 µM
- GI50 [57]: 3.58 µM
- TGI [57]: > 100 µM
- GI50 [51]: > 100 µM
- TGI [51]: > 100 µM
- GI50 [52]: > 100 µM
- TGI [52]: > 100 µM
- GI50 [53]: 3.33 µM
- TGI [53]: > 100 µM
